Test results taken from article PMC12645469 (Nature structural & molecular biology, 2024).

How the values were obtained:
NaDC3 [1] = biological target: T1, NaDC3 (Homo sapiens, UniProt Q8WWT9); assay: intrinsic tryptophan fluorescence quenching; format: binding
T1 sequence (Q8WWT9 1-602): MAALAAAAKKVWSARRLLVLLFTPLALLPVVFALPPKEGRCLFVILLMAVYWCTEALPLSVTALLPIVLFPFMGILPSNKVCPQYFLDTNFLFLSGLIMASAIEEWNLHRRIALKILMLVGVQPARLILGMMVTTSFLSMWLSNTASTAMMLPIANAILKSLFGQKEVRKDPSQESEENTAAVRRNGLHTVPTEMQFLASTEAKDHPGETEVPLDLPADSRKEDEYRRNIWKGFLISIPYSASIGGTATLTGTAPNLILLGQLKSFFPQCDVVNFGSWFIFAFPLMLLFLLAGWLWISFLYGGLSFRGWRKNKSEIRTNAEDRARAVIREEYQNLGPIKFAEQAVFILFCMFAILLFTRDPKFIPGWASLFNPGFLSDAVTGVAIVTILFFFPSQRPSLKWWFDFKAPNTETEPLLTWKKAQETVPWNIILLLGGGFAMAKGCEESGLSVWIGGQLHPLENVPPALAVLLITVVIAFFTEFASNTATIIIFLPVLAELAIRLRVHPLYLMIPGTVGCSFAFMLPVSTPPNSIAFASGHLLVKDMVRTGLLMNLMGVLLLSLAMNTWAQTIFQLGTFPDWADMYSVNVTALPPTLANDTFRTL

NaDC3 [2] = biological target: T1, NaDC3; assay: cryo-EM structure; format: cell-based
NaDC3 [3] = biological target: NaDC3 (Homo sapiens, UniProt Q8WWT9, F93Y)
NaDC3 [4] = biological target: T1, NaDC3; assay: biochemical
cryo-EM structure = biological target: the molecule itself; assay: cryo-EM structure

Sequence of NaDC3 (Homo sapiens, UniProt Q8WWT9, F93Y) (Q8WWT9 whole entry F93Y): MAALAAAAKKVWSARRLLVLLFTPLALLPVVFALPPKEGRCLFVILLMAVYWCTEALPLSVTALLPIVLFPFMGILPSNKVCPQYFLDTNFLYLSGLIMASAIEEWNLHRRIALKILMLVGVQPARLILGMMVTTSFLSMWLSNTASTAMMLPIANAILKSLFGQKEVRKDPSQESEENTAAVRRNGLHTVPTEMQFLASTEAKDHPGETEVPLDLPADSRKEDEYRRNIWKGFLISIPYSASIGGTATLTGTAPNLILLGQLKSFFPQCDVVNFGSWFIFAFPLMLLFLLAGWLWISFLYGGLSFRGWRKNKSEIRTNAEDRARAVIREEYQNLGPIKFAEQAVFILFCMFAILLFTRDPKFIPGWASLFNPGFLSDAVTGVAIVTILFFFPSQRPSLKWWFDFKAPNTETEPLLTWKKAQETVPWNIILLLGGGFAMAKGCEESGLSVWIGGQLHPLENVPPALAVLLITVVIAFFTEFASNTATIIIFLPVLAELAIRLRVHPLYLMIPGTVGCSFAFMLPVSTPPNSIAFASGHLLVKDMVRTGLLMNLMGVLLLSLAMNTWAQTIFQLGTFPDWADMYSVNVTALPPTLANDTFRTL

CC(C(=O)O)C(C)C(=O)O (centres unmarked) [DMS, 2,3-dimethylsuccinate]
Kd (NaDC3 [1]): 10.2 ± 5.6 µM

COc1ncc(C)cc1CC[C@@](O)(CC(=O)O)C(=O)O [PF4a, PF-06761281]
IC50 (NaDC3 [2]): 39.2 µM

O=C(O)CCC(=O)O [Succ, succinate]
Km (NaDC3 [3]): 10.5 ± 5.9 µM | Kd (NaDC3 [4]): 17.6 ± 9.8 µM

B1: human high affinity sodium-dicarboxylate cotransporter NaDC3 (natural protein)
chain: T1 sequence (Q8WWT9 1-602)
stoichiometry N (cryo-EM structure): 2
